# Source: ChEMBL document CHEMBL1142021, “Aglycon specificity profiling of alpha-glucosidases using synthetic probes” (Bioorg Med Chem Lett, 2005)
# Legend:
# [1] = molecular target: T1, Beta-galactosidase (Homo sapiens) (UniProt P16278); test: Inhibition of beta-Galactosidase at 5 umol/mL
# T1 sequence (whole entry): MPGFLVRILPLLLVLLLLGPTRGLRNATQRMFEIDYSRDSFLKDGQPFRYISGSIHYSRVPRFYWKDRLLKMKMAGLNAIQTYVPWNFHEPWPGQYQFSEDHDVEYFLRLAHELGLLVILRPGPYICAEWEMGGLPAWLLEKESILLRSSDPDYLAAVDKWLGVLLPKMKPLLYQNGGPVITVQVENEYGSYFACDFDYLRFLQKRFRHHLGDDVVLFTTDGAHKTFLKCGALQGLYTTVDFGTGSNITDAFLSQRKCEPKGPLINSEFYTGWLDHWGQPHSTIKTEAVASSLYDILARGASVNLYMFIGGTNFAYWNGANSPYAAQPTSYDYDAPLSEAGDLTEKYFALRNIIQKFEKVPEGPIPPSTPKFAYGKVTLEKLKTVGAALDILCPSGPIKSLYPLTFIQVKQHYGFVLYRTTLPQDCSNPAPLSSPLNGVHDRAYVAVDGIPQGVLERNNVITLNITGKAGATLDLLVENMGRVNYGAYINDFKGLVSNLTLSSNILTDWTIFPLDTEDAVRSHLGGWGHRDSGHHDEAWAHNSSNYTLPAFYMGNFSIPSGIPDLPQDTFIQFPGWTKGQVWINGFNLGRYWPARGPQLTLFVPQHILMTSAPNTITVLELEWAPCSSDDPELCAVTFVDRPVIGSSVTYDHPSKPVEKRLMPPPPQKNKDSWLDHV
# [2] = Inhibition of Flint corn glucosidase (of family 31 alpha-glucosidase) by compound with concentration 1 umol/mI
# [3] = molecular target: T2, Alpha-glucosidase (Oryza sativa Japonica Group) (UniProt Q9LGC6); test: Inhibition of Rice glucosidase (of family 31 alpha-glucosidase) at 1 umol/mL
# T2 sequence (whole entry): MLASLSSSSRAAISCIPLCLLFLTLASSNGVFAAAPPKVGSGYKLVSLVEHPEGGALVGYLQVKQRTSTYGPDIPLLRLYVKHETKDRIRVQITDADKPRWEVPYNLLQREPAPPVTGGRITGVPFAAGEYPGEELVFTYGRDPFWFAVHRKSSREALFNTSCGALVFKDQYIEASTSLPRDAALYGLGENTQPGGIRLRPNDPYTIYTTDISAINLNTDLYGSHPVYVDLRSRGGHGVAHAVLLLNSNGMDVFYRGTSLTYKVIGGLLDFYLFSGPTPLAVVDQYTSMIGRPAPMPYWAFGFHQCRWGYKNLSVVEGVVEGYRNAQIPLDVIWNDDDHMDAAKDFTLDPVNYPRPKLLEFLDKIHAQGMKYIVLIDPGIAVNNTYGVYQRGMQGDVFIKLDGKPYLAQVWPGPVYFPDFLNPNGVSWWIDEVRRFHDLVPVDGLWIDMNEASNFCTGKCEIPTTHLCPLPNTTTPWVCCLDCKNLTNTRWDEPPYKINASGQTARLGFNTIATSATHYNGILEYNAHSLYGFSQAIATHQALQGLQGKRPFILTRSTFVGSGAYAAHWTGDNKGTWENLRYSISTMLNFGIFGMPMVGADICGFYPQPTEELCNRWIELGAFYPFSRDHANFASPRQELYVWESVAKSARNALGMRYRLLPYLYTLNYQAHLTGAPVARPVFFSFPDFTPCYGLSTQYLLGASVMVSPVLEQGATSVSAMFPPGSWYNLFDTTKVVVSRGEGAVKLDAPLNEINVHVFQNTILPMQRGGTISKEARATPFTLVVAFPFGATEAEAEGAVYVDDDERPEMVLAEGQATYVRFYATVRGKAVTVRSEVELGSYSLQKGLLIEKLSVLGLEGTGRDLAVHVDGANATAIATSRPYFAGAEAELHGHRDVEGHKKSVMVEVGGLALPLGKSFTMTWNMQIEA
# Homo sapiens = species on record: Homo sapiens; test: Inhibition of Glucosidase 2 at 2 umol/mI
# [4] = molecular target: T3, Alpha-glucosidase (Apis mellifera) (UniProt Q17058); test: Inhibition of family 13 alpha-glucosidase isoform I from honey bee at 1 umol/mL
# T3 sequence (whole entry): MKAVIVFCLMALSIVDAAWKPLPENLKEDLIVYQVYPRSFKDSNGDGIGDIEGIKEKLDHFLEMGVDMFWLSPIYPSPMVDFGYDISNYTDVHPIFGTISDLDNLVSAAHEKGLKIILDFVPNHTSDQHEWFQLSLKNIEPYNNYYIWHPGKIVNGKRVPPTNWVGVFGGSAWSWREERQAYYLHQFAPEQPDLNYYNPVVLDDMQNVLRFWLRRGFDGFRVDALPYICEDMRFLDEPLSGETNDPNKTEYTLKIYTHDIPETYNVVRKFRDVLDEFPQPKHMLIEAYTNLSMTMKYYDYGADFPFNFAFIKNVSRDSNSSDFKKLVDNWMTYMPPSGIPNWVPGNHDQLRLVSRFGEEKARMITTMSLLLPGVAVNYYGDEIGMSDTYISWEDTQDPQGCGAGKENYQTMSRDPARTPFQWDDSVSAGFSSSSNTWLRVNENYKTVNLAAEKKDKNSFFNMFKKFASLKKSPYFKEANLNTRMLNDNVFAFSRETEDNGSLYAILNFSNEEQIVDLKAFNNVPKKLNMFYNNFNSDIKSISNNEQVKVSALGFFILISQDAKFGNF
inhibition [1],inhibition [2],inhibition [3],inhibition (Homo sapiens),inhibition [4],Compound
< 1%,5.6%,3.8%,< 1%,< 1%,CC(C)(C)C(=O)NCC1OC(CO)C(O)C(O)C1O (stereo not drawn)
< 1%,29.1%,10.7%,< 1%,< 52.3%,O=C(CO)NCC1OC(CO)C(O)C(O)C1O (stereo not drawn)
< 1%,31%,21.8%,< 1%,10.4%,CC(=O)NCC1OC(CO)C(O)C(O)C1O (stereo not drawn)
< 1%,49.2%,16%,5.9%,4.6%,O=C(NCC1OC(CO)C(O)C(O)C1O)c1ccccc1 (stereo not drawn)
< 1%,14.1%,8.5%,–,< 1%,O=C(CCO)NCC1OC(CO)C(O)C(O)C1O (stereo not drawn)
< 1%,18.5%,7.6%,< 1%,–,O=C(CCCO)NCC1OC(CO)C(O)C(O)C1O (stereo not drawn)
< 1%,37%,18.3%,< 1%,37.5%,O=C(CCCCO)NCC1OC(CO)C(O)C(O)C1O (stereo not drawn)
< 1%,44.6%,26%,< 1%,< 1%,O=C(CCCCCO)NCC1OC(CO)C(O)C(O)C1O (stereo not drawn)
